Our source for the AC50 values is PubChem BioAssay AID504843 (Broad Institute, 2011).

Active and inactive are the calls of the source. The rule behind the calls is not given here. Bounds are passed on as bounds.

In this assay the test system is bacterial growth, BacTiter-Glo ATP luminescence. The assay is described as follows: antibacterial activity by ATP level – BacTiter-Glo luminescence, cherry-picked samples, counter-screen, dose response (AID 504843).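 Note: growth measured after 8 h incubation at 30 °C.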

In the case of `CO[C@H]1C=CO[C@@]2(C)Oc3c(C)c(O)c4c(O)c(c(C=NN5CCN(C)CC5)c(O)c4c3C2=O)NC(=O)C(C)=CC=C[C@H](C)[C@H](O)[C@@H](C)[C@@H](O)[C@@H](C)[C@H](OC(C)=O)[C@@H]1C`, the AC50 was > 15 µM (inactive).
